From ChEMBL document CHEMBL5696442, “Discovery of type II inhibitors of TGFβ-activated kinase 1 (TAK1) and mitogen-activated protein kinase kinase kinase kinase 2 (MAP4K2)” (J Med Chem, 2015)
Calls of active or inactive are those of the source. The rule behind the calls is not given here.

Columns and labels:
[1] = target: Ribosomal protein S6 kinase alpha-1 (Homo sapiens) (UniProt Q15418); test: Inhibition of RSK1 domain2 ACT labeling site in human Huh-7 cell lysate at 1 uM by KiNativ Profiling analysis relative to control; type: subcellular
[2] = target: Serine/threonine-protein kinase 4 (Homo sapiens) (UniProt Q13043); test: Inhibition of MST1 Lys1 labeling site harbouring ETGQIVAIKQVPVESDLQEIIK in human Huh-7 cell lysate at 1 uM by KiNativ Profiling analysis relative to control
[3] = target: Cyclin-dependent kinase 2 (Homo sapiens) (UniProt P24941); test: Inhibition of CDK2 Lys1 labeling site in human Huh-7 cells at 1 uM by KiNativ Profiling analysis relative to control; type: cell-based
[4] = target: Casein kinase I isoform alpha (Homo sapiens) (UniProt P48729); test: Inhibition of CK1alpha Lys2 labeling site in human Huh-7 cell lysate at 1 uM by KiNativ Profiling analysis relative to control; type: subcellular
[5] = target: Serine/threonine-protein kinase VRK2 (Homo sapiens) (UniProt Q86Y07); test: Inhibition of VRK2 Lys2 labeling site in human Huh-7 cell lysate at 1 uM by KiNativ Profiling analysis relative to control; type: subcellular
[6] = target: T1, Serine/threonine-protein kinase 3 (Homo sapiens) (UniProt Q13188); test: Inhibition of MST2 Lys1 labeling site in human Huh-7 cells at 1 uM by KiNativ Profiling analysis relative to control; type: cell-based
T1 sequence (whole entry): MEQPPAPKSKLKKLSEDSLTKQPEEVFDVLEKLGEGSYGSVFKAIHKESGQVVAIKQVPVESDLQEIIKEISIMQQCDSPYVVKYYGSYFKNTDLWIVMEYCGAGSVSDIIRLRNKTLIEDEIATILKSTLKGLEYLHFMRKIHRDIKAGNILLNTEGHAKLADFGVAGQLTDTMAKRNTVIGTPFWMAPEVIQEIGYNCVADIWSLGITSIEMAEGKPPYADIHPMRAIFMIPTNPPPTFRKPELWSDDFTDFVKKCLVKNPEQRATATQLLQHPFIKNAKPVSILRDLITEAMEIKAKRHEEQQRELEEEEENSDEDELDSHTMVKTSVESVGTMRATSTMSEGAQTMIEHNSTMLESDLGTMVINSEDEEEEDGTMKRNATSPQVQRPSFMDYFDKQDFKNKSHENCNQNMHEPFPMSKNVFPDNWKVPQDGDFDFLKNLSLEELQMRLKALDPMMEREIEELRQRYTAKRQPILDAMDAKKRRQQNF

[7] = target: Wee1-like protein kinase (Homo sapiens) (UniProt P30291); test: Inhibition of Wee1 Lys2 labeling site in human Huh-7 cell lysate at 1 uM by KiNativ Profiling analysis relative to control; type: subcellular
[8] = target: Mitogen-activated protein kinase kinase kinase 4 (Homo sapiens) (UniProt Q9Y6R4); test: Inhibition of MAP3K4 K2 labeling site in human Huh-7 cells at 1 uM by KiNativ Profiling analysis relative to control; type: cell-based
[9] = target: Glycogen synthase kinase-3 beta (Homo sapiens) (UniProt P49841); test: Inhibition of GSK3B (unknown origin) at 10 uM by Ambit Kinomescan binding assay
[10] = target: cAMP-dependent protein kinase catalytic subunit beta (Homo sapiens) (UniProt P22694); test: Inhibition of PKAC beta (unknown origin) at 10 uM by Ambit Kinomescan binding assay relative to control
[11] = target: Serine/threonine-protein kinase 35 (Homo sapiens) (UniProt Q8TDR2); test: Inhibition of STK35 (unknown origin) at 10 uM by Ambit Kinomescan binding assay relative to control; values are per cent of control
[12] = target: Serine/threonine-protein kinase 38 (Homo sapiens) (UniProt Q15208); test: Inhibition of NDR1 ACT labeling site in human A-375 cells at 0.5 uM by KiNativ Profiling analysis relative to control; type: cell-based
[13] = target: Tyrosine-protein kinase ABL1 (Homo sapiens, UniProt P00519); test: Inhibition of ABL1 (unknown origin) at 10 uM by Ambit Kinomescan binding assay relative to control; values are per cent of control
[14] = Inhibition of MARK2/3 K2 labeling site in human Huh-7 cells at 1 uM by KiNativ Profiling analysis relative to control; conditions: condition cancer
[15] = target: Tyrosine-protein kinase JAK1 (Homo sapiens) (UniProt P23458); test: Inhibition of JAK1 JH2 pseudokinase domain (unknown origin) at 10 uM by Ambit Kinomescan binding assay
[16] = target: Cyclin-dependent kinase 14 (Homo sapiens) (UniProt O94921); test: Inhibition of PFTAIRE1 Lys1 labeling site in human A-375 cells at 5 uM by KiNativ Profiling analysis relative to control
[17] = target: Tyrosine-protein kinase JAK1 (Homo sapiens) (UniProt P23458); test: Inhibition of JAK1 Domain 2 ACT labeling site in human Huh-7 cells at 10 uM by KiNativ Profiling analysis relative to control; type: cell-based
[18] = target: STE20-like serine/threonine-protein kinase (Homo sapiens) (UniProt Q9H2G2); test: Inhibition of SLK Lys1 labeling site in human A-375 cells at 5 uM by KiNativ Profiling analysis relative to control; type: cell-based
[19] = target: Serine/threonine-protein kinase 25 (Homo sapiens) (UniProt O00506); test: Inhibition of YSK1 ATP labeling site in human Huh-7 cells at 10 uM by KiNativ Profiling analysis relative to control; type: cell-based
[20] = target: 5'-AMP-activated protein kinase catalytic subunit alpha-1 (Homo sapiens) (UniProt Q13131); test: Inhibition of AMPKa1 ATP Loop labeling site in human A-375 cells at 5 uM by KiNativ Profiling analysis relative to control; type: cell-based
[21] = target: MAP/microtubule affinity-regulating kinase 4 (Homo sapiens) (UniProt Q96L34); test: Inhibition of MARK4 (unknown origin) at 1 uM by Ambit Kinomescan binding assay relative to control
[22] = target: Non-receptor tyrosine-protein kinase TNK1 (Homo sapiens) (UniProt Q13470); test: Inhibition of TNK1 (unknown origin) at 1 uM by Ambit Kinomescan binding assay relative to control
[23] = target: Interleukin-1 receptor-associated kinase 3 (Homo sapiens) (UniProt Q9Y616); test: Inhibition of IRAK3 (unknown origin) at 1 uM by Ambit Kinomescan binding assay relative to control; values are per cent of control
[24] = target: Serine/threonine-protein kinase/endoribonuclease IRE1 (Homo sapiens) (UniProt O75460); test: Inhibition of ERN1 (unknown origin) at 1 uM by Ambit Kinomescan binding assay relative to control; values are per cent of control

Tyrosine-protein kinase JAK1 (Homo sapiens), sequence (P23458 whole entry, the tested form may be a part): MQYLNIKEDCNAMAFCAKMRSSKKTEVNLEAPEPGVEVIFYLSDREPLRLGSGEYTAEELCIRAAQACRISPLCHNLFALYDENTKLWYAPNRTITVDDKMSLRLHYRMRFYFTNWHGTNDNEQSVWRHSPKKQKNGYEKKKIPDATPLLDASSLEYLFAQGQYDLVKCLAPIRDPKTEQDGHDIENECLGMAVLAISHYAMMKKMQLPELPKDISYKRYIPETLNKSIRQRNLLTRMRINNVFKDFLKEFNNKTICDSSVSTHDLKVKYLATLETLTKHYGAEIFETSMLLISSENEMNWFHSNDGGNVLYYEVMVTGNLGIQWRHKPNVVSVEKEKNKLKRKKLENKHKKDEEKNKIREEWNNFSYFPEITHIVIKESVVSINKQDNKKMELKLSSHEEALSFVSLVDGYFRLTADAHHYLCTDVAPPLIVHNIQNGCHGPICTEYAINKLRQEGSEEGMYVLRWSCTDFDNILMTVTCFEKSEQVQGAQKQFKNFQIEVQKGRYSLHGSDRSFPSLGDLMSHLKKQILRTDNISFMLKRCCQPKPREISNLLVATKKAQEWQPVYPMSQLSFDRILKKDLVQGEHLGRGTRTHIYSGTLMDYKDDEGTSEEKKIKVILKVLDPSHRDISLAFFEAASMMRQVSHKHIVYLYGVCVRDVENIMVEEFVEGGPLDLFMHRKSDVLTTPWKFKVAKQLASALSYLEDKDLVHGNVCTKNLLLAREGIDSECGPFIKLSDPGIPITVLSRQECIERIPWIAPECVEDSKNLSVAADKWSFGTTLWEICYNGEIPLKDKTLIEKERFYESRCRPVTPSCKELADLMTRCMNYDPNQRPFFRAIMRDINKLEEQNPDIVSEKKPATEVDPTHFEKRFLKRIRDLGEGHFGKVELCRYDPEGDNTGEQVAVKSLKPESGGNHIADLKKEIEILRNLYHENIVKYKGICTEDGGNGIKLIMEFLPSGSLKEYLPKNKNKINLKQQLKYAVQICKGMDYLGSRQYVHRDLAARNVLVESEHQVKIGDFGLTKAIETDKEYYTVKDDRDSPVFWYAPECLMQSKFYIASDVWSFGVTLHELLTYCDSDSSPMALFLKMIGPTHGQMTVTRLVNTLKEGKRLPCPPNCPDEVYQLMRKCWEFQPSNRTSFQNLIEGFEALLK
STE20-like serine/threonine-protein kinase (Homo sapiens), sequence (Q9H2G2 whole entry, looked up): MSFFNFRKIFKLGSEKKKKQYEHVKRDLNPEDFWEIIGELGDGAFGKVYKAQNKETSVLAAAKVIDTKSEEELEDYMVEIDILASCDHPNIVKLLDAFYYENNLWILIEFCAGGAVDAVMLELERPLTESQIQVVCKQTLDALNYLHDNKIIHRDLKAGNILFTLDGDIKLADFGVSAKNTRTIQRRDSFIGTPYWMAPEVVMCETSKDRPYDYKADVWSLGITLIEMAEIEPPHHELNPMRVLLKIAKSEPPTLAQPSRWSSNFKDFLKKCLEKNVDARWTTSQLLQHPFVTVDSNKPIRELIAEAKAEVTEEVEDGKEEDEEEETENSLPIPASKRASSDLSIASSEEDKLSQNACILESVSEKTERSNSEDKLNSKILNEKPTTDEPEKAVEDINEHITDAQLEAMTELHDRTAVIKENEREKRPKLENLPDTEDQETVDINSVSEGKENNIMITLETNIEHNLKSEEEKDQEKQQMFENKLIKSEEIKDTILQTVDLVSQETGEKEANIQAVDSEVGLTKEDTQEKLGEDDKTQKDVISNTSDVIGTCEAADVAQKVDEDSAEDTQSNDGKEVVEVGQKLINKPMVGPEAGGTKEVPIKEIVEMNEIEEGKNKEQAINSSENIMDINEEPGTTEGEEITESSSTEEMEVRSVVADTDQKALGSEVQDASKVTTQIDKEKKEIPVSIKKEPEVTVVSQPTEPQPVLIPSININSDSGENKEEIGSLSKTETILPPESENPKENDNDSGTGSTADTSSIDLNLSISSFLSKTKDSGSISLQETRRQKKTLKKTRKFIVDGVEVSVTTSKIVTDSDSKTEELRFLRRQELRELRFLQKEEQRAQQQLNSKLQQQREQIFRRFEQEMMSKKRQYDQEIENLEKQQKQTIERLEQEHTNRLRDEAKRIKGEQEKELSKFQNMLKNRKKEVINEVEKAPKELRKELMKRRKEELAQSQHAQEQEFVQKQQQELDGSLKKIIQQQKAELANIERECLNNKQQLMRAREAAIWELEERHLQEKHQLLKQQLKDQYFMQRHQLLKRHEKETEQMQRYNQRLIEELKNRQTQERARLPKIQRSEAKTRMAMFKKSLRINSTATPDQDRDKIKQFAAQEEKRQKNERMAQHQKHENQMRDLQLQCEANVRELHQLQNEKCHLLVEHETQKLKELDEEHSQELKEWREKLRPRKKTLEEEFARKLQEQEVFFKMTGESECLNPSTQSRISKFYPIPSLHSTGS
Serine/threonine-protein kinase 35 (Homo sapiens), sequence (Q8TDR2 whole entry): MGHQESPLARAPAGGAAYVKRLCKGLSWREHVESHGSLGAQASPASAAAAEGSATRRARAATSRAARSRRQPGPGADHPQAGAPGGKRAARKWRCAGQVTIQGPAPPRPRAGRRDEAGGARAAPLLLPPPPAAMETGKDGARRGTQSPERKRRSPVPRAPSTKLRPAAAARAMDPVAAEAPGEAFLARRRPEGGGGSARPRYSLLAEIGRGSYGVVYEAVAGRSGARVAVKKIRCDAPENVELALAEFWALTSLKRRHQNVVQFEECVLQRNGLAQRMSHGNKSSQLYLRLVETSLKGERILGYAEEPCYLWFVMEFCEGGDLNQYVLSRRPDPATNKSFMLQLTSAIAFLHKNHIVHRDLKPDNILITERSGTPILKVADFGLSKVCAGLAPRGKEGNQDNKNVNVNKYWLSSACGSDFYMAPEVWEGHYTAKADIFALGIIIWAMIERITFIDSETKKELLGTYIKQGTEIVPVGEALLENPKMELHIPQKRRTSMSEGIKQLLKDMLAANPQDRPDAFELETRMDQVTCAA
Interleukin-1 receptor-associated kinase 3 (Homo sapiens), sequence (Q9Y616 whole entry): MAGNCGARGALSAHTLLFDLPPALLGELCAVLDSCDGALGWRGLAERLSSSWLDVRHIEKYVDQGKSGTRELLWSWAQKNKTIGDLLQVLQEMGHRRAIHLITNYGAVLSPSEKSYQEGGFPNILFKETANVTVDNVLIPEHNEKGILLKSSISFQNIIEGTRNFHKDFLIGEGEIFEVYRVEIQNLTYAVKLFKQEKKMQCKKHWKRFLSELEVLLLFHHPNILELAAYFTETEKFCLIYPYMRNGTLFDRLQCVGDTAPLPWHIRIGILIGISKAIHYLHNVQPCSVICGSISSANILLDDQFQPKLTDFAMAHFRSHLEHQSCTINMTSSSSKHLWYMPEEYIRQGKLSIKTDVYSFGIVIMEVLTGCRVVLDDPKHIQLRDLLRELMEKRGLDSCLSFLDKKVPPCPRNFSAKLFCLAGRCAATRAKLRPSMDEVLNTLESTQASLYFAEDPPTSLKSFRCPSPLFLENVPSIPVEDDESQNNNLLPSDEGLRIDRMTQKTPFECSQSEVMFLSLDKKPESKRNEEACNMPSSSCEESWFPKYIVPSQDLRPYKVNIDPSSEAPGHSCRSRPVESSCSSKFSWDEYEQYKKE
Cyclin-dependent kinase 14 (Homo sapiens), sequence (O94921 whole entry, looked up, the tested form may be a part): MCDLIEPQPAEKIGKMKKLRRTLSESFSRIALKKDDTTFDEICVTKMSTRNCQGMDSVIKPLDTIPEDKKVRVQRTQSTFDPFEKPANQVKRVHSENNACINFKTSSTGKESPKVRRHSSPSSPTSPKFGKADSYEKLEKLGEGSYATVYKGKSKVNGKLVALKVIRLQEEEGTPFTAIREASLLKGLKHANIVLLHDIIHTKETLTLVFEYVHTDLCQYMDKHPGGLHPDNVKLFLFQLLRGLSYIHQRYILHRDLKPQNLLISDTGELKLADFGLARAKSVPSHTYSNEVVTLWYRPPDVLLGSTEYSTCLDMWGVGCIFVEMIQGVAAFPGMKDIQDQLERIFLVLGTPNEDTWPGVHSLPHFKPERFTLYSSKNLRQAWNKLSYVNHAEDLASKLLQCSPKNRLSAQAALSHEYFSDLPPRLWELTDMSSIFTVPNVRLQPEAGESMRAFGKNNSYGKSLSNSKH
Casein kinase I isoform alpha (Homo sapiens), sequence (P48729 2-337 limits assumed): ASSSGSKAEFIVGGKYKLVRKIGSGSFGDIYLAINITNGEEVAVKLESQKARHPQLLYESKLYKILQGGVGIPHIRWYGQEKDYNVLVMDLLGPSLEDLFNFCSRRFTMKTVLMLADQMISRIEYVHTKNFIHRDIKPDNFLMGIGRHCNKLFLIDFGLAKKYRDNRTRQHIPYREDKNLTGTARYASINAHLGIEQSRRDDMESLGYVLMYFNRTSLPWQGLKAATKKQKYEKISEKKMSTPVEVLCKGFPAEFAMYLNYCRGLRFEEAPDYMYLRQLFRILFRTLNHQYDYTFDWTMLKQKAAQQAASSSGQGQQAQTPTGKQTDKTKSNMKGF
Serine/threonine-protein kinase 25 (Homo sapiens), sequence (O00506 whole entry, looked up): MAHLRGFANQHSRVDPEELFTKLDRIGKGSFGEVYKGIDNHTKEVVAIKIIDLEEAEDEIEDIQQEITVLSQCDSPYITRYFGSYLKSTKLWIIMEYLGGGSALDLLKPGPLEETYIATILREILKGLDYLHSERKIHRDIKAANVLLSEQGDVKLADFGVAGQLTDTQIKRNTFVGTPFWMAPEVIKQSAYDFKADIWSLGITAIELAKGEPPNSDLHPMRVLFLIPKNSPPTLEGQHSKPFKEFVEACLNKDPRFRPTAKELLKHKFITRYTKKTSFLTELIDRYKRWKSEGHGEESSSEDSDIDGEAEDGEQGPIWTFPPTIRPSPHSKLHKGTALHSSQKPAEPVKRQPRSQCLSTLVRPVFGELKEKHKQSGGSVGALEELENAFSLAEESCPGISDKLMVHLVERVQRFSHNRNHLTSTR

CNc1cc(Oc2cc(C(=O)Nc3cc(N4CCN(C)CC4)cc(C(F)(F)F)c3)ccc2C)ncn1
inhibition [1]: 1.9% | inhibition [2]: -1.3% | inhibition [3]: -5.7% | inhibition [4]: 3.8% | inhibition [5]: -0.9% | inhibition [6]: 5.3% | inhibition [7]: -4.1%

CCN1CCN(Cc2ccc(NC(=O)c3ccc(C)c(Oc4ccnc5[nH]ccc45)c3)cc2C(F)(F)F)CC1
inhibition [8]: -2.3% | inhibition [9]: inactive | inhibition [10]: 14% | residual activity [11]: 3% | inhibition [12]: -4.5% | percent of control [13]: 0.1% | inhibition at 1 µM [14]: -5.3% | inhibition [15]: inactive | inhibition [16]: 81% | inhibition [17]: 41.1% | inhibition [18]: 34.6% | inhibition [19]: 25.3%

CCN1CCN(Cc2ccc(NC(=O)c3ccc(C)c(/C=C/c4cnc5[nH]ccc5c4OC)c3)cc2C(F)(F)F)CC1
inhibition [20]: 9.1% | inhibition [21]: 81% | inhibition [22]: 6.6% | residual activity [23]: 76% | residual activity [24]: 100%
